Toxic doses and inconclusive results are not listed.
System: BDF1 mice, P388 leukemia ip, median survival T/C
Experiment: NCI In Vivo Anticancer Drug Screen. Data for tumor model P388 Leukemia (intraperitoneal) in B6D2F1 (BDF1) mice
Settings: endpoint: median survival time, higher = longer survival
Method in brief: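 Transplantable tumour in mice; compound vs vehicle dosing; survival scored; ratio of treated to control reported.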

[1] = dose: 50.0 mg/kg/injection, schedule: Q01DX009 (ip), vehicle: saline with Tween-80
[2] = dose: 100.0 mg/kg/injection, schedule: Q01DX009 (ip), vehicle: saline with Tween-80
[3] = dose: 200.0 mg/kg/injection, schedule: Q01DX009 (ip), vehicle: saline with Tween-80
[4] = dose: 100.0 mg/kg/injection, schedule: Q04DX003 (ip), vehicle: saline with Tween-80
[5] = dose: 50.0 mg/kg/injection, schedule: Q04DX003 (ip), vehicle: saline with Tween-80
[6] = dose: 75.0 mg/kg/injection, schedule: Q01DX009 (ip), vehicle: saline with Tween-80

O=C(O)C1CCCN1C(=O)CCS (stereo unspecified)
T/C (dose: 50.0 mg/kg/injection, schedule: Q01DX009 (ip), vehicle: saline): 90 % of control
T/C (dose: 100.0 mg/kg/injection, schedule: Q01DX009 (ip), vehicle: saline): 90 % of control
T/C (dose: 200.0 mg/kg/injection, schedule: Q01DX009 (ip), vehicle: saline): 97 % of control

CC[C@H](CC[C@@H](C)[C@H]1CC[C@H]2[C@@H]3CC=C4C[C@@H](OC(=O)CN5CCNCC5)CC[C@]4(C)[C@H]3CC[C@]12C)C(C)C
T/C (dose: 50.0 mg/kg/injection, schedule: Q01DX009 (ip), vehicle: Klucel (hydroxypropylcellulose) (HPC)): 104 % of control
T/C (dose: 100.0 mg/kg/injection, schedule: Q01DX009 (ip), vehicle: Klucel (hydroxypropylcellulose) (HPC)): 104 % of control

O=CNc1ccccc1Cl
T/C (dose: 100.0 mg/kg/injection, schedule: Q01DX001 (ip), vehicle: saline with Tween-80): 112 % of control
T/C (dose: 200.0 mg/kg/injection, schedule: Q01DX001 (ip), vehicle: saline with Tween-80): 91 % of control
T/C (dose: 400.0 mg/kg/injection, schedule: Q01DX001 (ip), vehicle: saline with Tween-80): 91 % of control

CC12CCC3C(CCC4=CC(O)CCC43C=O)C1(O)CCC2c1ccc(=O)oc1 (stereo unspecified)
T/C (dose: 0.11 mg/kg/injection, schedule: Q01DX009 (ip), vehicle: saline + alcohol): 100 % of control
T/C (dose: 0.33 mg/kg/injection, schedule: Q01DX009 (ip), vehicle: saline + alcohol): 95 % of control
T/C (dose: 1.0 mg/kg/injection, schedule: Q01DX009 (ip), vehicle: saline + alcohol): 95 % of control
T/C (dose: 3.0 mg/kg/injection, schedule: Q01DX010 (ip), vehicle: carboxymethylcellulose (CMC)): 95 % of control

N#CC1=C(N)CCC2(C1)c1ccccc1-c1ccccc12
T/C [1]: 103 % of control
T/C [2]: 88 % of control
T/C [3]: 96 % of control

CCC[CH2][Hg][Cl]
T/C (dose: 6.25 mg/kg/injection, schedule: Q04DX003 (ip), vehicle: saline sonified): 115 % of control
T/C (dose: 11.0 mg/kg/injection, schedule: Q01DX009 (ip), vehicle: saline with Tween-80): 100 % of control
T/C (dose: 12.5 mg/kg/injection, schedule: Q01DX009 (ip), vehicle: saline with Tween-80): 109 % of control
T/C (dose: 12.5 mg/kg/injection, schedule: Q04DX003 (ip), vehicle: saline sonified): 110 % of control
T/C (dose: 16.5 mg/kg/injection, schedule: Q01DX009 (ip), vehicle: saline with Tween-80): 150 % of control
T/C (dose: 16.5 mg/kg/injection, schedule: Q04DX003 (ip), vehicle: saline sonified): 113 % of control
T/C (dose: 25.0 mg/kg/injection, schedule: Q04DX003 (ip), vehicle: saline sonified): 104 % of control
T/C (dose: 37.5 mg/kg/injection, schedule: Q04DX003 (ip), vehicle: saline sonified): 118 % of control

CCS(=O)(=O)c1ncc2cnccn12
T/C (dose: 100.0 mg/kg/injection, schedule: Q01DX009 (ip), vehicle: water): 92 % of control
T/C (dose: 100.0 mg/kg/injection, schedule: Q04DX003 (ip), vehicle: water): 95 % of control
T/C (dose: 200.0 mg/kg/injection, schedule: Q01DX009 (ip), vehicle: water): 105 % of control
T/C (dose: 200.0 mg/kg/injection, schedule: Q04DX003 (ip), vehicle: water): 91 % of control
T/C (dose: 400.0 mg/kg/injection, schedule: Q01DX009 (ip), vehicle: water): 100 % of control

ClCCN(CCCl)c1ccc(CNCCCNCc2ccc(N(CCCl)CCCl)cc2)cc1
T/C (dose: 2.5 mg/kg/injection, schedule: Q01DX009 (ip), vehicle: saline sonified): 160 % of control
T/C (dose: 3.75 mg/kg/injection, schedule: Q01DX009 (ip), vehicle: saline sonified): 170 % of control

O=C1c2ccccc2C(=O)N1CC/C=C/c1ccc([N+](=O)[O-])cc1Cl
T/C [4]: 100 % of control
T/C (dose: 200.0 mg/kg/injection, schedule: Q04DX003 (ip), vehicle: saline with Tween-80): 100 % of control
T/C (dose: 400.0 mg/kg/injection, schedule: Q04DX003 (ip), vehicle: saline with Tween-80): 100 % of control

OCC1OC(n2cnc3c2NC=NC[C@H]3O)CC1O (stereo partly specified)
T/C (dose: 0.25 mg/kg/injection, schedule: Q01DX005 (ip), vehicle: water): 102 % of control
T/C (dose: 0.25 mg/kg/injection, schedule: Q01DX009 (ip), vehicle: water): 105 % of control
T/C (dose: 0.25 mg/kg/injection, schedule: Q04DX002 (ip), vehicle: saline): 102 % of control
T/C (dose: 0.25 mg/kg/injection, schedule: Q04DX003 (ip), vehicle: saline): 100 % of control
T/C (dose: 0.5 mg/kg/injection, schedule: Q01DX005 (ip), vehicle: water): 109 % of control
T/C (dose: 0.5 mg/kg/injection, schedule: Q01DX009 (ip), vehicle: water): 102 % of control
T/C (dose: 0.5 mg/kg/injection, schedule: Q04DX002 (ip), vehicle: saline): 101 % of control
T/C (dose: 0.5 mg/kg/injection, schedule: Q04DX003 (ip), vehicle: saline): 99 % of control
T/C (dose: 0.8 mg/kg/injection, schedule: Q01DX009 (ip), vehicle: saline): 94 % of control
T/C (dose: 1.0 mg/kg/injection, schedule: Q01DX009 (ip), vehicle: saline): 99 % of control
T/C (dose: 1.3 mg/kg/injection, schedule: Q01DX009 (ip), vehicle: saline): 92 % of control
T/C (dose: 1.5 mg/kg/injection, schedule: Q01DX009 (ip), vehicle: saline): 96 % of control
T/C (dose: 2.0 mg/kg/injection, schedule: Q01DX001 (ip), vehicle: saline): 108 % of control
T/C (dose: 2.0 mg/kg/injection, schedule: Q01DX009 (ip), vehicle: saline): 92 % of control
T/C (dose: 2.25 mg/kg/injection, schedule: Q01DX009 (ip), vehicle: saline): 99 % of control
T/C (dose: 3.0 mg/kg/injection, schedule: Q01DX009 (ip), vehicle: saline): 100 % of control
T/C (dose: 4.0 mg/kg/injection, schedule: Q01DX001 (ip), vehicle: saline): 100 % of control

CC(=O)OCC(OC(C)=O)C(OC(C)=O)C(C#N)OC(C)=O (stereo unspecified)
T/C [5]: 95 % of control
T/C [4]: 95 % of control

ClC1=CCCCC1
T/C (dose: 150.0 mg/kg/injection, schedule: Q01DX009 (ip), vehicle: saline): 120 % of control
T/C (dose: 225.0 mg/kg/injection, schedule: Q01DX009 (ip), vehicle: saline): 115 % of control
T/C (dose: 335.0 mg/kg/injection, schedule: Q01DX009 (ip), vehicle: saline): 120 % of control

OCC(O)C(O)C(O)C(O)C(O)c1nc2ccccc2[nH]1 (stereo unspecified)
T/C [2]: 100 % of control
T/C [3]: 91 % of control
T/C (dose: 400.0 mg/kg/injection, schedule: Q01DX009 (ip), vehicle: saline with Tween-80): 93 % of control

CCOC(=O)C1(CCOC)CCCCC1=O (stereo unspecified)
T/C [1]: 106 % of control
T/C [2]: 117 % of control
T/C [3]: 115 % of control

O=[N+]([O-])c1ccc(Oc2ccc(-c3ccccc3)cc2)c(Cl)c1
T/C (dose: 18.75 mg/kg/injection, schedule: Q01DX009 (ip), vehicle: saline with Tween-80): 92 % of control
T/C [6]: 93 % of control

CC1(C)COC(c2ccc(CC(Cc3ccc(C4(C(C)(C)C)OCC(C)(C)CO4)cc3)C(=O)O)cc2)(C(C)(C)C)OC1
T/C (dose: 50.0 mg/kg/injection, schedule: Q01DX005 (ip), vehicle: saline with Tween-80): 86 % of control
T/C (dose: 100.0 mg/kg/injection, schedule: Q01DX005 (ip), vehicle: saline with Tween-80): 93 % of control
T/C (dose: 200.0 mg/kg/injection, schedule: Q01DX005 (ip), vehicle: saline with Tween-80): 96 % of control

Nn1c(-c2ccc([N+](=O)[O-])cc2)nc2ccccc2c1=O
T/C [1]: 90 % of control
T/C [2]: 91 % of control
T/C [3]: 91 % of control

CCCCCCCCCCCCNC(=O)CCC(=O)O
T/C (dose: 37.5 mg/kg/injection, schedule: Q01DX009 (ip), vehicle: saline with Tween-80): 91 % of control
T/C [6]: 87 % of control

COc1cc(C=Nc2cc(Br)cc(Br)c2)ccc1N(CCCl)CCCl
T/C (dose: 18.75 mg/kg/injection, schedule: Q04DX003 (ip), vehicle: other): 204 % of control
T/C (dose: 22.0 mg/kg/injection, schedule: Q04DX003 (ip), vehicle: saline with Tween-80): 200 % of control
T/C (dose: 33.0 mg/kg/injection, schedule: Q04DX003 (ip), vehicle: saline with Tween-80): 222 % of control
T/C (dose: 37.5 mg/kg/injection, schedule: Q04DX003 (ip), vehicle: other): 250 % of control
T/C [5]: 218 % of control
T/C (dose: 60.0 mg/kg/injection, schedule: Q04DX003 (ip), vehicle: saline with Tween-80): 272 % of control
T/C (dose: 75.0 mg/kg/injection, schedule: Q04DX003 (ip), vehicle: other): 250 % of control
T/C (dose: 100.0 mg/kg/injection, schedule: Q04DX003 (ip), vehicle: saline sonified): 154 % of control
T/C (dose: 200.0 mg/kg/injection, schedule: Q04DX003 (ip), vehicle: saline sonified): 263 % of control
T/C (dose: 400.0 mg/kg/injection, schedule: Q04DX003 (ip), vehicle: saline sonified): 118 % of control

Reference: PubChem BioAssay AID328 (DTP/NCI, 2004)
